Source: patent US5763198A, “Screening assays for compounds” (Sugen, Inc., priority 1994, dated 1998)
Where two headings read alike, the source gives them in different places.

Molecular target: T1, EGF-R (Homo sapiens, UniProt P00533)
T1 construct: another EGFR over-expressing human epidermoid carcinoma cell line, A431 (ATCC CRL 1555); endogenous in cells; host or cells: A431 (ATCC CRL 1555)
Assay: Cell-free screening assay for EGF-R kinase activity (EGFR immobilized from A431 lysate)
Format: biochemical
Conditions: read-out: IC50, EGF-R kinase activity in a cell free system
Procedure: This assay provides a method for measuring the effects of test substances on the kinase activity of specific targets in a cell-free system. The target substrate is isolated from cell lysates by immobilization in microtiter plate wells coated with anti-substrate antibody. Following addition of the test substance, ATP and a bivalent cation are added to the wells to initiate the kinase-reaction. Concentrations of ATP can be varied to assess whether a test compound competes for ATP or substrate interaction. […] Phosphorylation of tyrosine residues on the immobilized target is then detected using antiphosphotyrosine antiserum.
The materials and reagents used are described in Section 6.1 with the exception that the cells used to prepare the cell lysate were another EGFR over-expressing human epidermoid carcinoma cell line, A431 (ATCC CRL 1555). Test substances were obtained from LC Service Corp (Woburn, Mass.).
Preparation of the assay plates was performed as described in Section 6.2.1.
Cells (A431) were grown to 80-90% confluency in DMEM (Gibco) plus 10% calf serum then washed twice with PBS. HNTG was added and the dish place on ice for five minutes. […] The cleared lysate can be stored at -80 C until used.
Seven μg of cell lysate was added to each well of a prepared assay plate plus PBS to make a final volume of 150 μl. […] The plate was incubated for 30 minutes, shaking, at room temperature.
The kinase reaction was initiated by the addition of 15 μl of ATP/Mn mix (in 50 mM MnCL2, final concentration of ATP 1 μM, 3 μM or 10 μM) for a total volume of […]. The plate was incubated for 5 minutes at room temperature, shaking, then washed 5 times with TBST. The amount of phosphorylation present was measured as described in Section 6.2.3.

T1 sequence (P00533 25-1210): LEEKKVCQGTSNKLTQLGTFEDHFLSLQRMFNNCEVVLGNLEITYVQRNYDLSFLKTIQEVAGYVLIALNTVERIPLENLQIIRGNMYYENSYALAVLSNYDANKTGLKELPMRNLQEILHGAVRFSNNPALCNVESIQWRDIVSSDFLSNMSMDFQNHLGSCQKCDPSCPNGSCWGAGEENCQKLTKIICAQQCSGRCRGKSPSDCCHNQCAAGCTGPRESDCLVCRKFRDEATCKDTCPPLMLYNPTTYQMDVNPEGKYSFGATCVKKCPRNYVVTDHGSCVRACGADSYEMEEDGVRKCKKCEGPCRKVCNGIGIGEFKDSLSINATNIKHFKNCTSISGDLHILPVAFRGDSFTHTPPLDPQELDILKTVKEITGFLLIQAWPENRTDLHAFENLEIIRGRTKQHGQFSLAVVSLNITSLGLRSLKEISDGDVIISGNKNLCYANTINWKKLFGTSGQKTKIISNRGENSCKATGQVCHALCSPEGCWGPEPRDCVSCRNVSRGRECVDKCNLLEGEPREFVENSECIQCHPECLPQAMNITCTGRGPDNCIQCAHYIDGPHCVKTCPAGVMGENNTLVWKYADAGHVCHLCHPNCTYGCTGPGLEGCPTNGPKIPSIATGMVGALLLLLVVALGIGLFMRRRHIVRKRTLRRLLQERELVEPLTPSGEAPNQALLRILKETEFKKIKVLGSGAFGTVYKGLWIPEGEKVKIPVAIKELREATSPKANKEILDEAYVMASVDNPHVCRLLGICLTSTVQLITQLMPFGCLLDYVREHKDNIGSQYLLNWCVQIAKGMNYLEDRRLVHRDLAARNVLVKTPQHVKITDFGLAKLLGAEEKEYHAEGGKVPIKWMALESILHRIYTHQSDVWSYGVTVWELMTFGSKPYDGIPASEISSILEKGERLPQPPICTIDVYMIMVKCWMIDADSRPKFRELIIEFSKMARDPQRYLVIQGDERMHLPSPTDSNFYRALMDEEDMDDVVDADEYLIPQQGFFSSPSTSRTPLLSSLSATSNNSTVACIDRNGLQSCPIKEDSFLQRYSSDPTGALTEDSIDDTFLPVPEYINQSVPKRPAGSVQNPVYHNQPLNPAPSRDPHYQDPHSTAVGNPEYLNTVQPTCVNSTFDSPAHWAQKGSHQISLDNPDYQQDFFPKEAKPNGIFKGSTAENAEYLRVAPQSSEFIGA

Row | SMILES | IC50 (ATP conc. 1 μM) [µM] | IC50 (ATP conc. 3 μM) [µM] | IC50 (ATP conc. 10 μM) [µM]
1 | COC1C=CC=C(C)C(=O)NC2=CC(=O)C=C(C2=O)C(OC)C(C)CC(OC)C(OC)C(C)C=C(C)C1OC(N)=O (stereo not shown) [Herbimycin A] | > 100 |  | 
2 | O=C(O)c1cc(N(Cc2ccccc2O)Cc2cc(O)ccc2O)ccc1O [Lavendustin A] | 0.08 | 0.1 | 55
